# Measurements reported in PMC7441570 (Chemical biology & drug design, 2019).
# Key:
# in vitro = conditions: human, Caco-2
# HIV-1 RNase H = conditions: read-out: HIV-1 RNase H IC50; in vitro; ref Budihas et al., 2005; cited from earlier work
# human RNase H = conditions: read-out: human RNase H IC50; ref Budihas et al., 2005; cited from earlier work
# [1] = system: bacterial (Escherichia coli) RNase H; conditions: read-out: bacterial (Escherichia coli) RNase H IC50; ref Budihas et al., 2005; cited from earlier work
SMILES,Papp (in vitro),recovery (in vitro),IC50 (HIV-1 RNase H),IC50 (human RNase H),IC50 [1]
COCCc1ccc(OCC(O)CNC(C)C)cc1 (stereo not shown) [metoprolol],16.3 ×10⁻⁶ cm/s,> 93%,–,–,–
CC(C)(C)NCC(O)COc1cccc2c1CC(O)C(O)C2 (stereo not shown) [nadolol],0.11 ×10⁻⁶ cm/s,> 93%,–,–,–
CC(C)c1ccc(O)c(=O)c(O)c1 [β-thujaplicinol],–,–,~0.2 µM,5.7 µM,50 µM
